Our source for the GI50 and TGI values is PubChem BioAssay (NCI).

Among the test systems are A549 NSCLC; HCT-15 colon; K-562 leukemia; NCI-H226 lung; OVCAR-4 ovarian; OVCAR-5 ovarian; SK-MEL-5 melanoma; SNB-19 CNS; SNB-75 CNS; U251 CNS.
Experiment in all cases: NCI-60 cell line screen, 48 h

Where “and” joins values, the source holds several entries; their conditions need not be identical. Equal entries are not always repeated.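 Compound exposure: 48 hours, 5 concentrations, 96-well plates. Abbreviation: GI50, concentration required for 50% inhibition of growth. TGI is the concentration that stops growth completely.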

Take `COc1cc(NC(=O)c2ccccc2Nc2ccnc(C(F)(F)F)c2)cc(OC)c1OC`: the GI50 is 58.1 µM in the test with A549 NSCLC; 56.1 µM with HCT-15 colon; 52.8 µM in the test on K-562 leukemia; 77.7 µM with NCI-H226 lung; 30.6 µM with OVCAR-4 ovarian; above 100 µM with OVCAR-5 ovarian. The GI50 in the test with SK-MEL-5 melanoma was 25.4 µM; in the test with SNB-19 CNS it was 77.1 µM; in the test on SNB-75 CNS it was 34.8 µM; with U251 CNS it was 82.7 µM. The TGI in the test with A549 NSCLC, in the test on HCT-15 colon, in the test on K-562 leukemia, with NCI-H226 lung, in the test on OVCAR-4 ovarian and in the test with OVCAR-5 ovarian was above 100 µM in each case. The TGI with SK-MEL-5 melanoma, with SNB-19 CNS, in the test with SNB-75 CNS and in the test on U251 CNS was above 100 µM throughout.

Take `COc1ccc2c(c1)C(=O)c1c-2c(N2CCN(C(=O)CCNCCNCCO)CC2)nc2ccccc12`: the GI50 in the test on A549 NSCLC is 13.2 µM; with HCT-15 colon, 17.1 µM; in the test on K-562 leukemia, 2.97 µM; in the test on NCI-H226 lung, 22.6 µM; with OVCAR-4 ovarian, 21.2 µM; with OVCAR-5 ovarian it was 18.3 µM. The GI50 was 18 µM with SK-MEL-5 melanoma, 17.5 µM with SNB-19 CNS, 18.6 µM in the test on SNB-75 CNS and 15.8 µM in the test with U251 CNS. The TGI in the test with A549 NSCLC is 28 µM; with HCT-15 colon, 33.9 µM; with K-562 leukemia, 7.34 µM; in the test with NCI-H226 lung, 48.1 µM; with OVCAR-4 ovarian, 42.2 µM; in the test with OVCAR-5 ovarian, 34.4 µM. The TGI in the test with SK-MEL-5 melanoma came out at 33.8 µM; with SNB-19 CNS, 38 µM; in the test on SNB-75 CNS it was 37.4 µM; in the test on U251 CNS, 33.8 µM.

Take `NC(=O)c1ncn(Cc2ccccc2)c1CNC(N)=S`: the TGI in the test on A549 NSCLC, with HCT-15 colon, in the test on K-562 leukemia, in the test on NCI-H226 lung, with OVCAR-4 ovarian and with OVCAR-5 ovarian was above 100 µM in each case. Further, the TGI in the test with SK-MEL-5 melanoma, in the test on SNB-19 CNS, in the test with SNB-75 CNS and in the test with U251 CNS was above 100 µM in each case.

Regarding `C[C@H](c1ccccc1)N(CCC(=O)O)C(=O)CCN(C(=O)CCN(C(=O)CCN[C@H](C)c1ccccc1)[C@H](C)c1ccccc1)[C@H](C)c1ccccc1`, the GI50 in the test with A549 NSCLC, in the test with HCT-15 colon, with K-562 leukemia, with NCI-H226 lung, in the test on OVCAR-4 ovarian and in the test with OVCAR-5 ovarian was above 100 µM each time. For the same molecule, the GI50 in the test on SK-MEL-5 melanoma is above 100 µM; in the test on SNB-19 CNS, above 100 µM; with SNB-75 CNS, 66.4 µM; in the test with U251 CNS, above 100 µM. For the same molecule, the TGI with A549 NSCLC, in the test with HCT-15 colon, with K-562 leukemia, in the test with NCI-H226 lung, with OVCAR-4 ovarian and in the test with OVCAR-5 ovarian was above 100 µM each time. Besides, the TGI in the test on SK-MEL-5 melanoma, in the test with SNB-19 CNS, in the test on SNB-75 CNS and in the test with U251 CNS was above 100 µM throughout.

In the case of `O=c1c2cc(O)c(O)cc2oc2cc(O)c(C3OC(CO)C(O)C(O)C3O)c(O)c12` (stereo not given), the TGI in the test with A549 NSCLC, in the test on HCT-15 colon, in the test on K-562 leukemia, in the test on NCI-H226 lung, in the test with OVCAR-4 ovarian and with OVCAR-5 ovarian was above 100 µM throughout. Moreover, the TGI in the test with SK-MEL-5 melanoma, in the test on SNB-19 CNS, in the test on SNB-75 CNS and in the test on U251 CNS was above 100 µM in each case.

As for `Cc1ccc(S(=O)(=O)CC2(Br)CCc3ccccc3C2=O)cc1` (stereo not given), the TGI in the test with A549 NSCLC was above 100 µM; with HCT-15 colon, 42.5 µM; in the test with K-562 leukemia, above 100 µM; in the test on NCI-H226 lung, above 100 µM; in the test with OVCAR-4 ovarian, 50 µM; in the test with OVCAR-5 ovarian, above 100 µM. Besides, the TGI in the test on SK-MEL-5 melanoma is 38.4 µM; with SNB-19 CNS it was above 100 µM; in the test on SNB-75 CNS, 54.9 µM; in the test with U251 CNS, 46.8 µM.

Regarding `COc1cc(NC(C)CCCN2C(=O)c3ccccc3C2=O)c2ncccc2c1OC` (stereo not given), the GI50 was 33 µM in the test with A549 NSCLC; 28.4 µM in the test on HCT-15 colon; 83.9 µM in the test on K-562 leukemia; 33.3 µM in the test on NCI-H226 lung; 11.8 µM in the test on OVCAR-4 ovarian; 82.6 µM in the test on OVCAR-5 ovarian. The GI50 in the test with SK-MEL-5 melanoma was 16.5 µM; in the test on SNB-19 CNS, 67.7 µM; with SNB-75 CNS, 54.4 µM; in the test on U251 CNS, 46.8 µM. Also, the TGI in the test with A549 NSCLC, in the test on HCT-15 colon, with K-562 leukemia, in the test with NCI-H226 lung, in the test on OVCAR-4 ovarian and with OVCAR-5 ovarian was above 100 µM throughout. Moreover, the TGI in the test on SK-MEL-5 melanoma is 30.1 µM; with SNB-19 CNS it was above 100 µM; with SNB-75 CNS, above 100 µM; in the test on U251 CNS, above 100 µM.

In the case of `CS(=O)(=O)N1CCc2c(-c3cnc(N)nc3)nc(N3CCOCC3)nc21`, the GI50 in the test on A549 NSCLC was 0.644 µM and 0.413 µM; with HCT-15 colon it was 0.397 µM and 0.419 µM; with K-562 leukemia, > 6.98 µM and 5.3 µM; in the test on NCI-H226 lung, 0.52 µM and 0.343 µM; in the test with OVCAR-4 ovarian, 1.21 µM and 0.945 µM; in the test on OVCAR-5 ovarian, 0.685 µM and 0.461 µM. Besides, the GI50 was 1.78 µM and 1.36 µM in the test with SK-MEL-5 melanoma; 2.21 µM and 1.64 µM in the test on SNB-19 CNS; 0.146 µM and 0.135 µM in the test on SNB-75 CNS; 1.7 µM and 1.27 µM in the test on U251 CNS. Further, the TGI in the test on A549 NSCLC was > 10 µM and 5.45 µM; with HCT-15 colon, above 100 µM; in the test on K-562 leukemia, above 100 µM; with NCI-H226 lung, 9.45 µM and 12.5 µM; in the test with OVCAR-4 ovarian, above 25.7 µM; in the test on OVCAR-5 ovarian, above 62.6 µM. Moreover, the TGI was above 30.7 µM in the test on SK-MEL-5 melanoma; above 59.5 µM in the test on SNB-19 CNS; 1.3 µM and 0.929 µM in the test with SNB-75 CNS; > 10 µM and 23 µM in the test on U251 CNS.

As for `O=C1/C(=C/c2ccccc2[N+](=O)[O-])COc2ccc(O)c(O)c21`, the GI50 with A549 NSCLC was 2.61 µM; with HCT-15 colon, 0.286 µM; in the test with K-562 leukemia, 0.428 µM; with NCI-H226 lung, 3.97 µM; in the test with OVCAR-4 ovarian, 0.857 µM; in the test with OVCAR-5 ovarian, 1.69 µM. Further, the GI50 with SK-MEL-5 melanoma is 1.53 µM; in the test on SNB-19 CNS, 2.45 µM; in the test on SNB-75 CNS, 1.46 µM; in the test with U251 CNS it was 0.922 µM. Further, the TGI with A549 NSCLC is 12.4 µM; in the test on HCT-15 colon it was 1.15 µM; with K-562 leukemia it was above 100 µM; with NCI-H226 lung it was 25.2 µM; in the test with OVCAR-4 ovarian it was 2.29 µM; with OVCAR-5 ovarian, 3.66 µM. In addition, the TGI in the test with SK-MEL-5 melanoma turned out to be 3.02 µM; in the test on SNB-19 CNS, 9.53 µM; in the test with SNB-75 CNS, 6.17 µM; in the test on U251 CNS it was 5.76 µM.
